From patent US11559538B2, “Substituted 1,2-oxaborolan-2-ols as PDE4 inhibitors” (Pfizer Inc., priority 2018, dated 2023)
Read-outs that look alike come from different tables or passages of the source.

Tests used:
[1] = molecular target: PDE4B (aa 152-484, Uniprot ID Q07343) (Homo sapiens (Human), UniProt Q07343); assay: PDE4 SPA assay (scintillation proximity assay); assay type: biochemical; details: read-out: PDE4B2 IC50
In short: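 Scintillation proximity read-out after a 30 min room-temperature reaction of ~81.6 pM PDE4B catalytic fragment (aa 152-484) with 1 μM tritiated/unlabeled cAMP, pH 7.5 Tris buffer with MgCl2 and Brij 35. Compound given ~10 min beforehand, 4-fold dilutions, ~2% DMSO; IC50 from four-parameter logistic curve.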

IL-4 = assay: Cytokine assay: IL-4 release from PHA-L stimulated human PBMCs; assay type: cell-based; details: read-out: IL4 IC50
In short: (§1)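 Cytokines IL-4, IL-13 and IFNγ quantified by HTRF after 48 h, 37 °C culture of human PBMCs activated with PHA-L at 3.5 μg/mL final. Test compound, 4-fold dilutions from approximately 10 μM in 0.25% DMSO, was added briefly before stimulation; IC50 derived by four-parameter logistic regression.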

IL-13 = assay: Cytokine assay: IL-13 release from PHA-L stimulated human PBMCs; assay type: cell-based; details: read-out: IL13 IC50
In short: as §1

IFNγ = assay: Cytokine assay: IFNγ release from PHA-L stimulated human PBMCs; assay type: cell-based
In short: as §1

Chain of PDE4B (aa 152-484, Uniprot ID Q07343) (Q07343 324-656): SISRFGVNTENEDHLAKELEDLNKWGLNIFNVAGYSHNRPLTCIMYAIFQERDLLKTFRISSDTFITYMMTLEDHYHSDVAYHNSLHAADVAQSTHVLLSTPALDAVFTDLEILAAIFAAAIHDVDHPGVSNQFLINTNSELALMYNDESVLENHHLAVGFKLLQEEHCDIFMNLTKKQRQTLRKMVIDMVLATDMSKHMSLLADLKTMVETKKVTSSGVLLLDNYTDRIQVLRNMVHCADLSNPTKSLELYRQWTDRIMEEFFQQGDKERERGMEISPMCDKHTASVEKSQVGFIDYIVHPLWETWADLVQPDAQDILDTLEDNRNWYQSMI

IC50 [1] [nM]	IC50 (IL-4) [nM]	IC50 (IL-13) [nM]	IC50 (IFNγ) [nM]	IC50 (IFNγ; Homo sapiens, PBMC) [nM]	IC50 (IL-4; Homo sapiens, PBMC) [nM]	IC50 (IL-13; Homo sapiens, PBMC) [nM]	SMILES
1.34	19.8	2150	4.62	–	–	–	COc1ccc(-c2cncc(C3COB(O)C3)c2)cc1OC1CCSC1 (centres unmarked) [Example 80, 4-(5-(4-methoxy-3-((tetrahydrothiophen-3-yl)oxy)phenyl)pyridin-3-yl)-1,2-oxaborolan-2-ol]
2.36	54.4	858	–	1.62	–	–	CCCOc1c(OC)ccc(-c2cncc(C3COB(O)C3)c2)c1F (centres unmarked) [Example 81, 4-(5-(2-fluoro-4-methoxy-3-propoxphenyl)pyridin-3-yl)-1,2-oxaborolan-2-ol]
1.24	–	–	–	0.44	0.9	444	CCCOc1cc(-c2cncc(C3COB(O)C3)c2C)ccc1OC (centres unmarked) [Example 84, 4-(5-(4-methoxy-3-propoxyphenyl)-4-methylpyridin-3-yl)-1,2-oxaborolan-2-ol]
7.26	–	–	–	5	105	1330	CCCOc1c(OC)ccc(-c2cccc(C3COB(O)C3)n2)c1C#N (centres unmarked) [Example 86, 6-(6-(2-hydroxy-1,2-oxaborolan-4-yl)pyridin-2-yl)-3-methoxy-2-propoxybenzonitrile]
2.64	–	–	–	6.14	63.7	609	CCCOc1cc(-c2cccc(C3COB(O)C3)c2)ccc1OC (centres unmarked) [Example 88, 4-(4′-methoxy-3′-propoxy-[1,1′-biphenyl]-3-yl)-1,2-oxaborolan-2-ol]
3	–	–	–	3.92	5.9	460	CCOc1cc(-c2nc(C3COB(O)C3)cs2)c(F)cc1OC (centres unmarked) [Example 91, 4-(2-(5-ethoxy-2-fluoro-4-methoxyphenyl)thiazol-4-yl)-1,2-oxaborolan-2-ol]
0.5	–	–	–	1.66	9.87	460	COc1cnc(-c2cccc(C3COB(O)C3)c2)nc1OC1CCCC1 (centres unmarked) [Example 93, 4-(3-(4-(cyclopentyloxy)-5-methoxypyrimidin-2-yl)phenyl)-1,2-oxaborolan-2-ol]
12.5	–	–	–	3.88	9.58	606	CCOc1c(OC)ccc(-c2cncc(C3COB(O)C3)c2)c1C(F)(F)F (centres unmarked) [Example 94, 4-(5-(3-ethoxy-4-methoxy-2-(trifluoromethyl)phenyl)pyridin-3-yl)-1,2-oxaborolan-2-ol]
1.69	–	–	–	5.27	48.9	965	CCOc1ccc(-c2cncc(C3COB(O)C3)c2)cc1OCC (centres unmarked) [Example 96, 4-(5-(3,4-diethoxyphenyl)pyridin-3-yl)-1,2-oxaborolan-2-ol]
1.37	–	–	–	9.42	44.3	957	CSc1ccc(-c2cncc(C3COB(O)C3)c2)cc1OC1CCCC1 (centres unmarked) [Example 99, 4-(5-(3-(cyclopentyloxy)-4-(methylthio)phenyl)pyridin-3-yl)-1,2-oxaborolan-2-ol]
3.58	–	–	–	5.46	29.4	750	CCCOc1cc(-c2cncc(C3COB(O)C3)c2)ccc1OCC (centres unmarked) [Example 104, 4-(5-(4-ethoxy-3-propoxyphenyl)pyridin-3-yl)-1,2-oxaborolan-2-ol]
2.41	–	613	–	4.17	27.1	–	COc1ccc(-c2cncc(C3COB(O)C3)c2)c(F)c1OC (centres unmarked) [Example 107, 4-(5-(2-fluoro-3,4-dimethoxyphenyl)pyridin-3-yl)-1,2-oxaborolan-2-ol]
4.18	22.7	1270	6.24	–	–	–	COc1ccc(-c2cncc(C3COB(O)C3)c2)c(F)c1OC (centres unmarked) [Example 109, 4-(5-(2-fluoro-3,4-dimethoxyphenyl)pyridin-3-yl)-1,2-oxaborolan-2-ol]
0.61	–	–	–	5.1	48.4	496	CCCCCOc1cc(-c2cccc(C3COB(O)C3)c2)ccc1OC (centres unmarked) [Example 110, 4-(4′-methoxy-3′-(pentyloxy)-[1,1′-biphenyl]-3-yl)-1,2-oxaborolan-2-ol]
1.41	79.9	–	8.1	–	–	588	CCCOc1cc(-c2cncc(C3COB(O)C3)c2)ccc1SC (centres unmarked) [Example 112, 4-(5-(4-(methylthio)-3-propoxyphenyl)pyridin-3-yl)-1,2-oxaborolan-2-ol]
1.1	–	–	–	1.68	38.4	509	CCCOc1cc(-c2cncc(C3COB(O)C3)n2)ccc1OC (centres unmarked) [Example 115, 4-(6-(4-methoxy-3-propoxyphenyl)pyrazin-2-yl)-1,2-oxaborolan-2-ol]

IC50 [1] [nM]	IC50 (IL-4) [nM]	IC50 (IL-13) [nM]	IC50 (IFNγ) [nM]	IC50 (IFNγ; Homo sapiens, PBMC) [nM]	IC50 (IL-4; Homo sapiens, PBMC) [nM]	IC50 (IL-13; Homo sapiens, PBMC) [nM]	SMILES
1.8	–	–	–	10	64.2	520	COc1cc(-c2cccc(C3COB(O)C3)c2)cc(C#N)c1OC (centres unmarked) [Example 117, 3′-(2-hydroxy-1,2-oxaborolan-4-yl)-4,5-dimethoxy-[1,1′-biphenyl]-3-carbonitrile]
0.9	–	–	–	2.65	9.78	531	CCOc1cc(-c2cncc(C3COB(O)C3)c2)cc(C#N)c1OC (centres unmarked) [Example 118, 3-ethoxy-5-(5-(2-hydroxy-1,2-oxaborolan-4-yl)pyridin-3-yl)-2-methoxybenzonitrile]
1.11	–	–	–	7.85	171	2090	CCOc1nc(-c2cccc(C3=CB(O)OC3)c2)ccc1OC [Example 120, 4-(3-(6-ethoxy-5-methoxypyridin-2-yl)phenyl)-1,2-oxaborol-2(5H)-ol]
0.69	–	–	–	1.5	57.4	533	CCOc1nc(-c2cccc(C3COB(O)C3)c2)ccc1OC (centres unmarked) [Example 121, 4-(3-(6-ethoxy-5-methoxypyridin-2-yl)phenyl)-1,2-oxaborolan-2-ol]
2.2	9.48	1660	10.1	–	–	–	CCCOc1cc(-c2nc(C3COB(O)C3)cc(C(F)(F)F)n2)ccc1OC (centres unmarked) [Example 124, 4-(2-(4-methoxy-3-propoxyphenyl)-6-(trifluoromethyl)pyrimidin-4-yl)-1,2-oxaborolan-2-ol]
1.7	–	–	–	2.43	11.3	577	COc1ccc(-c2cncc(C3COB(O)C3)n2)cc1OC1CCCC1 (centres unmarked) [Example 125, 4-(6-(3-(cyclopentyloxy)-4-methoxyphenyl)pyrazin-2-yl)-1,2-oxaborolan-2-ol]
4.04	–	–	–	24.6	34.5	3340	COc1ccc(-c2cccc(C3=CB(O)OC3)c2)cc1OC1CCCC1 [Example 129, 4-(3′-(cyclopentyloxy)-4′-methoxy-[1,1′-biphenyl]-3-yl)-1,2-oxaborol-2(5H)-ol]
1.6	–	–	–	3.21	120	587	COc1ccc(-c2cccc(C3COB(O)C3)c2)cc1OC1CCCC1 (centres unmarked) [Example 130, 4-(3′-(cyclopentyloxy)-4′-methoxy-[1,1′-biphenyl]-3-yl)-1,2-oxaborolan-2-ol]
2.63	–	–	–	2.42	12.9	604	COc1cc(C2COB(O)C2)nc(-c2ccc(OC)c(OC3CCCC3)c2)n1 (centres unmarked) [Example 132, 4-(2-(3-(cyclopentyloxy)-4-methoxyphenyl)-6-methoxypyrimidin-4-yl)-1,2-oxaborolan-2-ol]
7.46	–	–	–	3.04	1.79	1110	CCCOc1cc(-c2nc(CC(=O)O)cc(C3COB(O)C3)n2)ccc1OC (centres unmarked) [Example 134, 2-(6-(2-hydroxy-1,2-oxaborolan-4-yl)-2-(4-methoxy-3-propoxyphenyl)pyrimidin-4-yl)acetic acid]
10.3	–	–	–	7.24	15.3	668	CCCOc1cc(-c2nc(C3COB(O)C3)ccc2F)ccc1OC (centres unmarked) [Example 135, 4-(5-fluoro-6-(4-methoxy-3-propoxyphenyl)pyridin-2-yl)-1,2-oxaborolan-2-ol]
2.04	–	–	–	0.9	1.08	988	CCOc1cc(-c2cncc(C3COB(O)C3)c2C(F)F)ccc1OC (centres unmarked) [Example 138, 4-(4-(difluoromethyl)-5-(3-ethoxy-4-methoxyphenyl)pyridin-3-yl)-1,2-oxaborolan-2-ol]
0.95	–	–	–	2.24	3.35	701	CCOc1cc(-c2cncc(C3COB(O)C3)c2C)c(F)cc1OC (centres unmarked) [Example 141, 4-(5-(5-ethoxy-2-fluoro-4-methoxyphenyl)-4-methylpyridin-3-yl)-1,2-oxaborolan-2-ol]
6.77	–	–	–	52.1	103	2240	CCCOc1cccc(-c2cncc(C3COB(O)C3)c2)c1 (centres unmarked) [Example 145, 4-(5-(3-propoxphenyl)pyridin-3-yl)-1,2-oxaborolan-2-ol]
0.44	–	–	–	1.57	2.69	1260	CCCOc1cc(-c2nc(C3COB(O)C3)ns2)ccc1OC (centres unmarked) [Example 147, 4-(5-(4-methoxy-3-propoxyphenyl)-1,2,4-thiadiazol-3-yl)-1,2-oxaborolan-2-ol]
0.24	4.92	759	1.68	–	–	–	CCCOc1cc(-c2nc(C3COB(O)C3)ns2)ccc1OC (centres unmarked) [Example 148]
